The target in this assay is T1, TxgGalNAc-T3 (Toxoplasma gondii, UniProt A0A125YMZ8).
T1 construct: gene TGME49_318730; luminal region (catalytic and lectin domains), aa 74-635; secreted from Pichia pastoris SMD1168; His tag removed with TEV protease
The assay can be described thus: X-ray crystal structure. It counts as binding. To be noted: crystals with Mn2+, UDP-GalNAc-F and glycopeptide (CST1.4 or Muc5AC series), pH 9.5; active site, UDP coordinates Mn2+A; added as UDP-GalNAc-F, only UDP modelled.

Drawing on article PMC11074326, “A Toxoplasma gondii O-glycosyltransferase that modulates bradyzoite cyst wall rigidity is distinct from host homologues” (Nature Communications, 2024), this text covers X-ray crystal structure for one molecule.

T1 sequence (A0A125YMZ8 entry or part of it): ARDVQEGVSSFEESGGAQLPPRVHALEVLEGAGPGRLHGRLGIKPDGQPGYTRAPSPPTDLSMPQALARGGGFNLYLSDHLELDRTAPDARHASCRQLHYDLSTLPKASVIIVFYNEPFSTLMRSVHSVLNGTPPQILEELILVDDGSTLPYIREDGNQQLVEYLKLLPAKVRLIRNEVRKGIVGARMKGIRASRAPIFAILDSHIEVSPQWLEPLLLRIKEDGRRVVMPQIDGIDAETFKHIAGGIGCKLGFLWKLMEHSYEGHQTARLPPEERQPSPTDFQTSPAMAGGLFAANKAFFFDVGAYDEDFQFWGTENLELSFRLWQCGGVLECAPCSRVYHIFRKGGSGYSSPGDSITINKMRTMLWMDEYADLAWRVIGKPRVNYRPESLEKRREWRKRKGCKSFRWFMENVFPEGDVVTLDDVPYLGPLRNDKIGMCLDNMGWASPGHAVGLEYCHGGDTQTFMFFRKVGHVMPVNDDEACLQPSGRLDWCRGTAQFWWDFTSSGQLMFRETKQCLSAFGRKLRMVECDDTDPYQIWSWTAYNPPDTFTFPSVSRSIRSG

For `O=c1ccn([C@@H]2O[C@H](COP(=O)(O)OP(=O)(O)O)[C@@H](O)[C@H]2O)c(=O)[nH]1` [UDP], the X-ray crystal structure entry is given as “We modeled UDP into the active site but did not include GalNAc-F”.
